# Laboratory results reported in ChEMBL document CHEMBL3817771, “Structure-Based Design of Peptidic Inhibitors of the Interaction between CC Chemokine Ligand 5 (CCL5) and Human Neutrophil Peptides 1 (HNP1)” (J Med Chem, 2016).
# Activity calls are given as the source filed them. The calls are words filed in the database; no cut-off is given here. Peptide text beside a SMILES is read from it.
# Target: T1, C-C motif chemokine 5/Neutrophil defensin 1 (Defensin, alpha 1) (Homo sapiens) (UniProt P13501+P59665)
# T1 sequence (P13501 whole entry, looked up): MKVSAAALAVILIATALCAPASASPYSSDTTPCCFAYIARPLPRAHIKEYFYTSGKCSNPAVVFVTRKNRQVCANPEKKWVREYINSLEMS
# T1 sequence (P59665 whole entry, looked up): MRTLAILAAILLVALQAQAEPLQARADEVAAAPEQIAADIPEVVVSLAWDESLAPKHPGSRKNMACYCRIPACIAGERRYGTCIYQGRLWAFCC
# Assay: Inhibition of CCL5 (unknown origin)-HNP1 (unknown origin) interaction in HUVEC assessed as reduction in CCL5-HNP1-driven human monocyte adhesion at 100 ug/ml pre-incubated for 5 mins before human monocyte addition
# Type: cell-based
row,Compound,inhibition
1,H-RRYGTSIYQ-OH,Active
2,H-RRYGTSKYQ-OH,Active
3,H-TYQRRSGKY-OH,inactive
4,H-YQGRLWAFSS-OH,Active

# Further lines, results first:
row,inhibition,Compound
1,Active,"CC(C)C[C@@H]1NC(=O)[C@H](CCCNC(=N)N)NC(=O)CNC(=O)[C@H](CCC(N)=O)NC(=O)[C@H](Cc2ccc(O)cc2)NC(=O)[C@H](CCCCN)NC(=O)[C@H](C)NC(=O)[C@H]([C@@H](C)O)NC(=O)CNC(=O)[C@H](Cc2ccc(O)cc2)NC(=O)[C@H](CCCNC(=N)N)NC(=O)[C@H](CCCNC(=N)N)NC(=O)[C@@H](N)CSSC[C@@H](C(N)=O)NC(=O)[C@H](C)NC(=O)[C@H](Cc2ccccc2)NC(=O)[C@H](C)NC(=O)[C@H](Cc2c[nH]c3ccccc23)NC1=O (HELM PEPTIDE1{C.R.R.Y.G.T.A.K.Y.Q.G.R.L.W.A.F.A.C.[am]}$PEPTIDE1,PEPTIDE1,1:R3-18:R3$$$V2.0)"
2,Active,H-RRYGTSRYQ-OH

# Target: T1, C-C motif chemokine 5/Neutrophil defensin 1 (Defensin, alpha 1) (Homo sapiens)
# Assay: Inhibition of CCL5 (unknown origin)-HNP1 (unknown origin) interaction in HUVEC assessed as CCL5-HNP1-driven human monocyte adhesion at 100 ug/ml pre-incubated for 5 mins before human monocyte addition
# Type: cell-based
# Set-up: scale not given: the % may be the effect or the level left
row,Activity,Compound
1,11.8%,H-RRYGTSKYQ-OH
